Measured values published in patent US20220304349A1, “Steviol Glycoside Compositions for Oral Ingestion or Use” (CARGILL, Incorporated, priority 2016, published 2022).

Columns and labels:
Type in all cases: in vivo, human
[1] = Sensory evaluation by experienced tasters in unsweetened black tea (Example 5, Test A); details: about 200 ppm in tea
Experimental: (§1) Glycoside samples (SG101-104) were isolated and purified from fermentation broth, purified Rebs A, B, and D are of leaf origin and Reb M is chemically synthesized. All samples were dissolved in reverse osmosis water at the concentrations indicated. Unsweetened black tea was used in one set of experiments. Approximately 2-3 milliliters of each solution was tasted and sensory evaluations conducted by two to three experienced tasters. Test A

[2] = SEV measurement by trained sensory panel in citric acid buffer at pH=3.0; details: for SEV: citric acid buffer pH=3.0; for Sucrose equivalent value / relative sweetness scale- sucrose = 1: 250 ppm in citric buffer, pH = 3.0
From the text: Sweetness may be determined by measuring sucrose equivalent values (SEV) using methods and processes well known to those skilled in the art. For example, SEV may be determined by measuring sweetness equivalence to a reference sucrose solution. Typically, taste panelists are trained to detect and scale sweetness of reference sucrose solutions containing between 10 g to 150 g sucrose/kg (1 to 15 wt % aqueous sucrose solution). A sweetener composition containing one or more glycosides are then tasted at a series of dilutions to determine the concentration of the sweetener composition that is as sweet as a given sucrose reference. For example, if a sweetened solution is as sweet as a 5 wt % sucrose solution, then the sweetened solution is assigned a SEV of 5.
SEV measurements for SG101-104 (listed above and in Table 12) were performed according to the following procedure: A trained sensory panel evaluated solutions of SG101, SG102, SG103, and SG104 at the concentrations specified. Solutions were made in a citric acid buffer at pH=3.0. All solutions were heated to 55° C. for 12 minutes to ensure that all the glycoside material was completely dissolved. The solutions were allowed to cool to room temperature before serving to the panelists. Each solution was given a random 3-digit code and was served to the panelists in random order. Panelists dispensed 2 mL of each solution into their mouths from a pipette. The panelists were then asked to rate the “sweetness intensity” of the solutions and mark their responses on an un-anchored, 15 cm line scale. The length of the line corresponds to the scale values (1-15) on which the participants were trained. The panelists' responses were measured, compiled, and averaged for each sample. Each sample was tested by approximately 12 trained panelists.

[3] = Sensory evaluation by two to three experienced tasters, solutions in reverse osmosis water (Example 5, Tests A and B); details: 200 ppm in water, Test A
Experimental: as §1
As used herein, “sucrosey” means having a flavor profile, a sweetness profile, or a flavor profile and a sweetness pofile more similar to that of sucrose.

Compound | Sensory comments [1] | SEV ([2]; 200 ppm) | SEV ([2]; 400 ppm) | Sensory comments [3] | SEV ([2]; 500 ppm) | Sucrose equivalent value [2] | relative sweetness scale- sucrose = 1 [2] [X]
C=C1C[C@@]23CCC4[C@](C)(C(=O)OC5OC(CO)C(O)C(OC6OC(CO)C(O)C(O)C6O)C5OC5OC(CO)C(O)C(O)C5O)CCC[C@@]4(C)[C@@H]2CC[C@]1(OC1OC(COC2OC(CO)C(O)C(O)C2O)C(O)C(OC2OC(CO)C(O)C(O)C2O)C1OC1OC(CO)C(O)C(O)C1O)C3 (some centres unmarked) [SG102] | Not sweet, slightly less astringent, some additional roundedness | 1.0 | 1.5 | a bit sweeter than SG101, sweetness does have quick onset | – | – | –
C=C1C[C@@]23CCC4[C@](C)(C(=O)OC5OC(CO)C(O)C(O)C5OC5OC(CO)C(O)C(O)C5O)CCC[C@@]4(C)[C@@H]2CC[C@]1(OC1OC(COC2OC(CO)C(O)C(O)C2O)C(O)C(OC2OC(CO)C(O)C(O)C2O)C1OC1OC(CO)C(O)C(O)C1O)C3 (some centres unmarked) [SG101] | Zero sweetness, seems less than in water, naked tea | 0.6 | 1.2 | not sweet, astringent, cloying—mouth drying on the tongue | 1.6 | – | –
C=C1C[C@@]23CCC4[C@](C)(C(=O)OC5OC(CO)C(O)C(O)C5OC5OC(CO)C(O)C(O)C5O)CCC[C@@]4(C)[C@@H]2CC[C@]1(OC1OC(CO)C(O)C(OC2OC(COC4OC(CO)C(O)C(O)C4O)C(O)C(O)C2O)C1OC1OC(CO)C(O)C(O)C1O)C3 (some centres unmarked) [SG103] | Slower onset than Reb M by itself, not as sweet as Reb M, slightly more licorice aftertaste | – | – | as sweet or sweeter than 200 ppm Reb M, more sucrosey, sugary quality characteristics (high fructose corn syrup (HFCS), cotton candy notes) are reminiscent of Reb M at 400 ppm but not as sweet, “fuller” feeling | – | 4.8 | 192
C=C1C[C@@]23CCC4[C@](C)(C(=O)OC5OC(CO)C(O)C(OC6OC(CO)C(O)C(O)C6O)C5OC5OC(CO)C(O)C(O)C5O)CCC[C@@]4(C)[C@@H]2CC[C@]1(OC1OC(CO)C(O)C(OC2OC(COC4OC(CO)C(O)C(O)C4O)C(O)C(O)C2O)C1OC1OC(CO)C(O)C(O)C1O)C3 (some centres unmarked) [SG104] | As sweet as Reb M, very sucrosey compared to Reb M, a little back end licorice | – | – | as sweet or sweeter than 200 ppm Reb M, more rounded sweetness, enhanced sugar quality effects (sensations reminiscent of sucrose, vanilla), “fuller” feeling | – | 6.5 | 260
